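The compound was tested at five concentrations on cells cultured in 96-well plates, with a 48-hour exposure period. GI50 = concentration required for 50% inhibition of growth. The concentration for full growth arrest is given as TGI.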

Some test systems named below: SK-MEL-5 melanoma; A549 NSCLC; IGROV1 ovarian; UACC-257 melanoma; MALME-3M melanoma; HL-60(TB) leukemia; OVCAR-3 ovarian; HOP-92 NSCLC.
Holding throughout (assay): DTP human tumour cell line panel, 48 h

`O=c1c2ccccc2oc2ccccc12` (tested in a mixture with another compound): the TGI was 7.61 µM with SK-MEL-5 melanoma; more than 100 µM in the assay on A549 NSCLC; 22.1 µM with IGROV1 ovarian; 9.31 µM in the assay on UACC-257 melanoma; 8.18 µM in the assay on MALME-3M melanoma; more than 100 µM in the assay with HL-60(TB) leukemia. Moreover, the concentration for total growth inhibition (TGI) in the assay with OVCAR-3 ovarian was more than 100 µM.
Regarding `O=C(O)c1c2c(cc3c(=O)c4ccccc4[nH]c13)CCCC2`, the TGI in the assay on A549 NSCLC, in the assay on IGROV1 ovarian, with UACC-257 melanoma, in the assay on MALME-3M melanoma, in the assay with HOP-92 NSCLC and in the assay with HL-60(TB) leukemia was more than 100 µM each time. In the assay on OVCAR-3 ovarian, the TGI is more than 100 µM.
On to `COC(=O)/C(C#N)=C1\CCC(OC)N1C` (centres undefined), for which the TGI in the assay on SK-MEL-5 melanoma, in the assay with A549 NSCLC, with IGROV1 ovarian, with UACC-257 melanoma, in the assay on MALME-3M melanoma and in the assay on HL-60(TB) leukemia was more than 100 µM each time. The molecule further gave a TGI in the assay on OVCAR-3 ovarian of more than 100 µM.
Regarding `CS(=O)(=O)c1ccc(COP(N)(=O)N(CCCl)CCCl)cc1` (centres undefined), the TGI with SK-MEL-5 melanoma, in the assay on A549 NSCLC, in the assay with IGROV1 ovarian, with UACC-257 melanoma, in the assay with MALME-3M melanoma and in the assay with HOP-92 NSCLC was more than 100 µM each time. The TGI in the assay with OVCAR-3 ovarian is more than 100 µM.
In the case of `Cc1ccc(N2C(=O)/C(=C/c3ccc(N(CCC#N)CCC#N)cc3)N=C2COc2ccc(Cl)cc2Cl)cc1`, the TGI in the assay with SK-MEL-5 melanoma, with A549 NSCLC, in the assay with IGROV1 ovarian, in the assay with UACC-257 melanoma, with MALME-3M melanoma and in the assay on HL-60(TB) leukemia was more than 100 µM each time. The same molecule returned a TGI in the assay on OVCAR-3 ovarian of more than 100 µM.
Regarding `COc1ccc(-c2cc3ccccc3[nH]c2=O)cc1OC`, the TGI with A549 NSCLC, in the assay with IGROV1 ovarian, in the assay with UACC-257 melanoma, in the assay with MALME-3M melanoma and with HL-60(TB) leukemia was more than 100 µM throughout.
Turning to `CCC1CCCCN1CC(C(C)=O)C(c1ccccc1)c1c(O)c2ccccc2oc1=O` (centres undefined), the TGI in the assay with SK-MEL-5 melanoma, with A549 NSCLC, in the assay on IGROV1 ovarian, with UACC-257 melanoma, in the assay on MALME-3M melanoma and in the assay on HL-60(TB) leukemia was more than 100 µM throughout. The molecule further came in with a TGI in the assay with OVCAR-3 ovarian of more than 100 µM.
Take `O=C1OC(=O)C23CSCC12C1C=CC3O1` (centres undefined): the TGI in the assay with SK-MEL-5 melanoma, in the assay on A549 NSCLC, in the assay with IGROV1 ovarian, with UACC-257 melanoma, in the assay on MALME-3M melanoma and with HL-60(TB) leukemia was more than 100 µM each time. The TGI in the assay with OVCAR-3 ovarian was more than 100 µM.
`CC(=O)OCC1OC(n2c(=O)[nH]c(=O)c3n[nH]nc32)C(OC(C)=O)C(OC(C)=O)C1OC(C)=O` (centres undefined): the TGI with SK-MEL-5 melanoma, in the assay on A549 NSCLC, with IGROV1 ovarian, in the assay with UACC-257 melanoma, in the assay with MALME-3M melanoma and in the assay with HOP-92 NSCLC was more than 100 µM each time. Moreover, the TGI with HL-60(TB) leukemia is more than 100 µM.
For `COc1ccc(Br)c(CN2CCc3ccccc32)c1OS(=O)(=O)c1ccc(C)cc1`, the TGI with A549 NSCLC is more than 100 µM; in the assay with UACC-257 melanoma, more than 100 µM; with MALME-3M melanoma it was more than 100 µM; in the assay with HOP-92 NSCLC it was more than 100 µM; in the assay on HL-60(TB) leukemia, more than 100 µM; with OVCAR-3 ovarian, 75.9 µM.
Consider `CN1CCC(c2c(O)cc(O)c3c(=O)cc(-c4ccccc4Cl)oc23)C(O)C1` (centres undefined), for which the concentration for total growth inhibition (TGI) was 0.107 µM in the assay with SK-MEL-5 melanoma; more than 100 µM in the assay with A549 NSCLC; more than 100 µM with IGROV1 ovarian; 0.598 µM in the assay on MALME-3M melanoma; 0.337 µM with HOP-92 NSCLC; 0.0223 µM with OVCAR-3 ovarian. In addition, the GI50 with IGROV1 ovarian is 0.0827 µM; in the assay on OVCAR-3 ovarian, less than 0.01 µM.
As for `CCCCCCCC(=O)[O-].CCCCCCCC(=O)[O-].N.N.N.N.[Co+3].[O-][Cl+3]([O-])([O-])[O-]`, the GI50 is more than 100 µM with A549 NSCLC; 40.3 µM in the assay on IGROV1 ovarian; more than 100 µM with UACC-257 melanoma; more than 100 µM in the assay on MALME-3M melanoma; more than 100 µM with HOP-92 NSCLC; more than 100 µM in the assay with HL-60(TB) leukemia. Also, the TGI in the assay on A549 NSCLC, with IGROV1 ovarian, in the assay with UACC-257 melanoma, in the assay with MALME-3M melanoma, in the assay with HOP-92 NSCLC and in the assay on HL-60(TB) leukemia was more than 100 µM each time.
Take `COc1ccc(NC(=O)CC(=O)N/N=C(\C)c2cc3ccccc3oc2=O)cc1`: the TGI in the assay with SK-MEL-5 melanoma, with A549 NSCLC, in the assay with IGROV1 ovarian, in the assay with UACC-257 melanoma, with MALME-3M melanoma and in the assay on HL-60(TB) leukemia was more than 100 µM in each case. Also, the TGI with OVCAR-3 ovarian is more than 100 µM.

As usually defined, the TGI is the concentration at which net growth stops. Low readings indicate greater sensitivity of the cells, high ones lower sensitivity of the cells. By GI50 is commonly meant the concentration giving 50% growth inhibition.

The values above are taken from PubChem BioAssay (NCI).
